Data on 33 molecules can be found in the Biogen ADME set (Fang et al. 2023).

For this data set the following is noted: for aqueous solubility: pH 6.8.

Values after ≈ are worked out from the molar mass of the structure shown. Where only a bound is given, the exact number is not on record here.

For the molecule `Cc1ccc(OC[C@@H](O)[C@H](C)NC(C)C)c2c1CCC2`, the MDR1-MDCK efflux ratio came to 1.38; the intrinsic clearance, human liver microsomes was 124 mL/min/kg; the intrinsic clearance, rat liver microsomes was found to be 3140 mL/min/kg.
Usually aqueous solubility stands for the dissolved amount per volume that the medium holds. A low value points to little dissolved substance. With `O=C(c1cnc(-c2ccccc2)s1)N1CCOC2(CCCC2)C1`, the MDR1-MDCK efflux ratio amounted to 0.58; the intrinsic clearance, human liver microsomes is 21.4 mL/min/kg; the intrinsic clearance, rat liver microsomes was 774 mL/min/kg; the aqueous solubility turned out to be 39 µg/mL (≈ 119 µM).
On to `CCc1cc(-c2ccc(OC)c3nc(C)ccc23)nc(N2CCOCC2)n1`, for which the MDR1-MDCK efflux ratio worked out at 1.12; the intrinsic clearance, human liver microsomes is 6.38 mL/min/kg; the intrinsic clearance, rat liver microsomes amounted to 105 mL/min/kg.
Consider `NC1CCCC(C(=O)Nc2cccc(N3CCNC3=O)c2)C1` (stereo not drawn), for which the MDR1-MDCK efflux ratio was 1.33; the fraction unbound, human plasma was found to be 0.58; the intrinsic clearance, human liver microsomes was ≤ 4.74 mL/min/kg.
As to `COc1ccc(NC(=O)CN2CCC(c3cc(-c4cnc(N)nc4)cc(C)n3)CC2)cc1`, the MDR1-MDCK efflux ratio is 5.08; the intrinsic clearance, human liver microsomes is 15.7 mL/min/kg; the intrinsic clearance, rat liver microsomes amounted to 245 mL/min/kg; the aqueous solubility amounted to 42.5 µg/mL (≈ 98.2 µM).
Take `Cc1nc2cc(-c3nccn3C)nn2c(NCCCN(C)C)c1C`: the MDR1-MDCK efflux ratio was found to be 67.6; the intrinsic clearance, human liver microsomes was ≤ 4.74 mL/min/kg; the intrinsic clearance, rat liver microsomes is 601 mL/min/kg.
On to `CN1C(=O)COc2cc(NC(=O)C3CC=CC3)ccc21`, for which the intrinsic clearance, human liver microsomes was ≤ 4.74 mL/min/kg and the intrinsic clearance, rat liver microsomes worked out at 92.7 mL/min/kg.
For the molecule `Cc1cc(C(=O)N2CCN(C(=O)C3CCC3)CC2)c(O)cn1`, the MDR1-MDCK efflux ratio amounted to 29.1; the intrinsic clearance, human liver microsomes is ≤ 4.74 mL/min/kg; the intrinsic clearance, rat liver microsomes was ≤ 10.7 mL/min/kg.
As for `Cc1nc(N2CCNCC2)c2cnn(C)c2n1`, the MDR1-MDCK efflux ratio was 15.3; the intrinsic clearance, human liver microsomes is ≤ 4.74 mL/min/kg; the intrinsic clearance, rat liver microsomes was found to be 15.1 mL/min/kg.
The corresponding values for `CN(Cc1nncn1C)C1CCN(c2ccccc2F)CC1` are 2.06, ≤ 4.74 mL/min/kg and 89.4 mL/min/kg.
`CN(C)c1ncc(CN2CCC(Cc3ccc(F)cc3)CC2)s1`: the intrinsic clearance, human liver microsomes was 43.1 mL/min/kg and the intrinsic clearance, rat liver microsomes came to 2570 mL/min/kg.
Take `Cc1nccn1-c1cncc(N2CCN(CC3CCCC3)C(=O)C2)n1`: the MDR1-MDCK efflux ratio came out at 6.94; the intrinsic clearance, human liver microsomes is 19.7 mL/min/kg; the intrinsic clearance, rat liver microsomes worked out at 540 mL/min/kg; the aqueous solubility came to 49.7 µg/mL (≈ 146 µM).
The molecule `Cn1nccc1C(=O)C1CCN(C(=O)c2cccs2)CC1` gave an intrinsic clearance, human liver microsomes of 12.2 mL/min/kg and an intrinsic clearance, rat liver microsomes of 97.5 mL/min/kg.
On to `CC(C)(C)OC(=O)c1ccc(-n2[nH]cc(-n3ccnn3)c2=O)nc1`, for which the MDR1-MDCK efflux ratio was determined as 1.19; the intrinsic clearance, human liver microsomes was ≤ 4.74 mL/min/kg; the intrinsic clearance, rat liver microsomes came out at 20.7 mL/min/kg.
`CCCS(=O)(=O)N1CCCC(C(=O)N2CCc3ccccc3C2)C1` (stereo not drawn): the MDR1-MDCK efflux ratio is 1.87; the intrinsic clearance, human liver microsomes amounted to 62 mL/min/kg; the intrinsic clearance, rat liver microsomes was determined as 1010 mL/min/kg; the aqueous solubility was found to be 54.8 µg/mL (≈ 156 µM).
Consider `CCc1[nH]nc(NC2CCC(C(=O)OC)CC2)c1C` (stereo not drawn), for which the MDR1-MDCK efflux ratio was 0.826; the intrinsic clearance, human liver microsomes was 523 mL/min/kg; the intrinsic clearance, rat liver microsomes is 296 mL/min/kg.
In the case of `COc1ccc(C(=O)c2ccc(C)cc2)c(OC)c1`, the MDR1-MDCK efflux ratio was determined as 0.46; the intrinsic clearance, human liver microsomes was 102 mL/min/kg; the intrinsic clearance, rat liver microsomes was determined as 3010 mL/min/kg.
`Cc1ccc(CCNc2nc(C)cc(C)n2)cn1` displayed an intrinsic clearance, human liver microsomes of 12.7 mL/min/kg and an intrinsic clearance, rat liver microsomes of 192 mL/min/kg.
`CC1(C)C(=O)N(Cc2ccc(CO)cc2)C(=O)c2ccccc21`: the aqueous solubility turned out to be 27.5 µg/mL (≈ 88.8 µM).
Consider `N#CCN(C(=O)c1cn(-c2ccc(Br)cc2)cn1)C1CC1`, for which the MDR1-MDCK efflux ratio was determined as 1.04; the intrinsic clearance, human liver microsomes was ≤ 4.74 mL/min/kg; the intrinsic clearance, rat liver microsomes came to 57.3 mL/min/kg; the aqueous solubility was found to be 65.3 µg/mL (≈ 189 µM).
Consider `COc1ccccc1-c1cc(C(C)(C)C)nc(-c2ncccn2)n1`, for which the MDR1-MDCK efflux ratio came out at 1.98; the intrinsic clearance, human liver microsomes stood at 22.7 mL/min/kg; the intrinsic clearance, rat liver microsomes came out at 169 mL/min/kg.
On to `C[C@@H]1CCN(C(=O)CC#N)C[C@@H]1N(C)c1ncnc2[nH]ccc12`, for which the MDR1-MDCK efflux ratio was 41.1; the fraction unbound, human plasma was 0.981; the fraction unbound, rat plasma was found to be 0.559; the intrinsic clearance, human liver microsomes is ≤ 4.74 mL/min/kg. This molecule also registered an intrinsic clearance, rat liver microsomes of 120 mL/min/kg and an aqueous solubility of 41.2 µg/mL (≈ 132 µM).
Consider `Cc1nccn1CCCN1C(=O)SC(C)(C)C1=O`, for which the MDR1-MDCK efflux ratio was found to be 2.51; the intrinsic clearance, human liver microsomes is ≤ 4.74 mL/min/kg; the intrinsic clearance, rat liver microsomes stood at 83 mL/min/kg; the aqueous solubility was 29.2 µg/mL (≈ 109 µM).
`O=C(O)c1cc(Cl)cc2cccnc12`: the intrinsic clearance, human liver microsomes is ≤ 4.74 mL/min/kg; the intrinsic clearance, rat liver microsomes is ≤ 10.7 mL/min/kg; the aqueous solubility is 26.9 µg/mL (≈ 129 µM).
On to `COCC1(CNC(=O)c2cc(Cl)cnc2O)CCC1`, for which the MDR1-MDCK efflux ratio was determined as 5.64; the intrinsic clearance, human liver microsomes amounted to 16.3 mL/min/kg; the intrinsic clearance, rat liver microsomes is 475 mL/min/kg.
Consider `Nc1ccc2[nH]c(CCc3ccccc3)nc2c1`, for which the MDR1-MDCK efflux ratio was found to be 1.27; the intrinsic clearance, human liver microsomes was ≤ 4.74 mL/min/kg; the intrinsic clearance, rat liver microsomes was 28.8 mL/min/kg; the aqueous solubility turned out to be 36.3 µg/mL (≈ 153 µM).
As to `Cc1ccccc1CNC(=O)c1ccc(-n2ccnc2)nc1`, the MDR1-MDCK efflux ratio came out at 0.867; the intrinsic clearance, human liver microsomes was ≤ 4.74 mL/min/kg; the intrinsic clearance, rat liver microsomes was determined as 35.3 mL/min/kg; the aqueous solubility stood at 43.6 µg/mL (≈ 149 µM).
As for `Cc1ccccc1CC(=O)N1CCN(C(=O)c2ccccc2)CC1`, the MDR1-MDCK efflux ratio is 2.06; the intrinsic clearance, human liver microsomes is 6.12 mL/min/kg; the intrinsic clearance, rat liver microsomes came out at 211 mL/min/kg; the aqueous solubility worked out at 44.3 µg/mL (≈ 137 µM).
The molecule `Cc1ccccc1CS(=O)(=O)c1ncc(Cl)c(C(=O)Nc2sc3c(c2C#N)CCCC3)n1` displayed an intrinsic clearance, human liver microsomes of 568 mL/min/kg and an intrinsic clearance, rat liver microsomes of 2120 mL/min/kg.
In the case of `CCCn1cc(C(=O)N2CCC(c3n[nH]cc3C(=O)N3CCOCC3)CC2)cn1`, the MDR1-MDCK efflux ratio stood at 15.3; the intrinsic clearance, human liver microsomes is ≤ 4.74 mL/min/kg; the intrinsic clearance, rat liver microsomes was 11.4 mL/min/kg; the aqueous solubility worked out at 54.1 µg/mL (≈ 135 µM).
Turning to `Oc1cccc(/C=C/c2nc3ccccc3o2)c1`, the MDR1-MDCK efflux ratio is 0.192 and the aqueous solubility is 0.7 µg/mL (≈ 2.95 µM).
Turning to `O=C(NCC#CCN1CCc2ccccc2C1)NCc1ccc(F)cc1`, the MDR1-MDCK efflux ratio stood at 4; the intrinsic clearance, human liver microsomes amounted to 79.7 mL/min/kg; the intrinsic clearance, rat liver microsomes was 545 mL/min/kg; the aqueous solubility was found to be 33.5 µg/mL (≈ 95.2 µM).
As for `CC#CC(=O)N[C@H]1CCCN(c2c(F)cc(C(N)=O)c3[nH]c(C)c(C)c23)C1`, the MDR1-MDCK efflux ratio worked out at 7.25; the fraction unbound, human plasma worked out at 0.0146; the fraction unbound, rat plasma came out at 0.00229; the intrinsic clearance, human liver microsomes was determined as 25 mL/min/kg. The molecule also gave an intrinsic clearance, rat liver microsomes of 238 mL/min/kg and an aqueous solubility of 10.8 µg/mL (≈ 29.2 µM).
